# Measurements reported in patent publication US20100210722A1, “COMPOSITION FOR PREVENTING OR TREATING LIPID METABOLIC DISORDERS COMPRISING FUCOXANTHIN OR MARINE PLANT EXTRACT CONTAINING SAME” (AMICOGEN, INC., priority 2007, published 2010).
# Marks after values point to notes of the source that are not given here.
# How the values were obtained:
# Assay type in all cases: in vivo, C57BL/6N/CriBgi mice
# [1] = Triglyceride and cholesterol level in liver tissue; conditions: high fat diet, 6 weeks
# Method: Seventy (70) 4-week-old male C57BL/6N/CriBgi mice weighing 14 g were purchased from Orient, and reared in separate cages maintained at 24° C. and relative humidity of 55%, providing light from 08:00 until 20:00. The mice were accustomed while providing a pellet type diet for a week. The mice, which weighed 18.5-18.7 g, were grouped into seven groups by the randomized block design. Each group was given a different diet, as follows.
# (§1) Test diets were as follows: “normal diet group”=AIN-76 semisynthetic diet of Teklad (Madison, Wl, USA); “high fat diet group”=normal diet+10% of corn oil and 10% of lard; “test group I”=high fat diet+fucoxanthin extract of Example 1 (fucoxanthin content=0.05%); “test group II”=high fat diet+fucoxanthin extract of Example 1 (fucoxanthin content=0.2%); “test group III”=high fat diet+fucoxanthin extract of Example 2 (fucoxanthin content=0.05%); “test group IV”=high fat diet+fucoxanthin extract of Example 2 (fucoxanthin content=0.2%). The 6 diets (normal diet, high fat diet, and test I, II, III and IV) were given to the animals for 6 weeks. Diet intake was recorded every day, and body weight was measured once a week.
# malic enzyme (ME) = test: ME activity in liver tissue; conditions: high fat diet, 6 weeks
# From the text: as §1
# (§2) The supernatant was centrifuged again at 12,000×g for 15 minutes. Then, the supernatant was subjected to high-speed centrifuging (Beckman, Optima TLX-120, USA) at 100,000×g for 1 hour. Then, change of the activity of enzymes involved in the synthesis of fatty acid—fatty acid synthase (FAS), glucose-6-phosphate dehydrogenase (G6PD) and malic enzyme (ME)—was measured.
# The ME enzyme is also an enzyme that supplied reducing energy required for the synthesis of fatty acid. […] ME activity was determined as follows. […] After 2 minutes of reaction at 27° C., absorbance was measured at 340 nm. ME activity was calculated as nmol of NADPH produced per 1 mg of protein in cell per minute.
# [2] = system: fatty acid synthase (FAS); test: FAS activity in liver tissue; conditions: high fat diet, 6 weeks
# From the text: as §1, §2
# Specifically, FAS activity was determined as follows. […] After 10 minutes of reaction at 30° C., decrease of absorbance was measured. FAS activity was calculated as nmol of NADPH oxidized per 1 mg of protein in cell per minute.
# [3] = system: phosphatidate phosphohydrolase (PAP); test: PAP activity in liver tissue; conditions: high fat diet, 6 weeks
# From the text: as §1
# CPT mRNA = test: Expression of mRNA for CPT in adipose tissue (real-time PCR); conditions: normal diet = 1.00, GAPDH internal marker
# From the text: as §1
# (§3) 5 mL of Trizol was added to 0.5 g of white adipose tissue. After pulverizing in liquid nitrogen using a mortar, the tissue was added to 1 mL of chloroform. […] The isolated RNA was diluted and absorbance was measured at 260 nm using a UV spectrometer. […]
# (§4) Thus prepared cDNA was […] 10-fold, and primers for analyzing the expression of the respective genes (CPT, β-oxidation, FAS, ME and G6PD) were obtained from Genotech (Daejeon, Korea). […] Fluorescence signals were monitored for each cycle and threshold cycle (Cr) was analyzed for quantitative analysis of mRNA for the test groups (Applied Biosystems, SDS7000) (Livak, 2001). […]
# β-oxidase mRNA = test: Expression of mRNA for β-oxidation in adipose tissue (real-time PCR); conditions: normal diet = 1.00, GAPDH internal marker
# From the text: as §1, §3, §4
# FAS mRNA = test: Expression of mRNA for FAS in adipose tissue (real-time PCR); conditions: normal diet = 1.00, GAPDH internal marker
# From the text: as §1, §3, §4
# ME mRNA [4] = test: Expression of mRNA for ME in adipose tissue (real-time PCR); conditions: normal diet = 1.00, GAPDH internal marker
# From the text: as §1, §3, §4
# [5] = system: lipoprotein lipase (LPL) mRNA; test: Expression of mRNA for LPL in liver tissue (real-time PCR)
# ME mRNA [6] = test: Expression of mRNA for ME in liver tissue (real-time PCR)
# [7] = fucoxanthin content 0.05% (Test I/III)
# [8] = fucoxanthin content 0.2% (Test II/IV)
# [9] = normal diet = 1.00, fucoxanthin content 0.05% (Test I/III)
# [10] = normal diet = 1.00, fucoxanthin content 0.2% (Test II/IV)
smiles,measurement,setting,value
"CC(=O)O[C@H]1CC(C)(C)C(=C=C/C(C)=C/C=C/C(C)=C/C=C/C=C(C)/C=C/C=C(\C)C(=O)C[C@@]23O[C@]2(C)C[C@@H](O)CC3(C)C)[C@](C)(O)C1 [highly pure fucoxanthin, Fucoxanthin]",Triglyceride level in liver tissue,[1]; [7],0.14 ± 0.01^c mmol/g liver
same,Triglyceride level in liver tissue,[1]; [8],0.17 ± 0.02^b mmol/g liver
same,ME activity,malic enzyme (ME); [7],77.06 ± 7.08^a mmol/min/mg protein
same,ME activity,malic enzyme (ME); [8],73.91 ± 6.37^a mmol/min/mg protein
same,FAS activity,[2]; [7],7.92 ± 0.59^a mmol/min/mg protein
same,FAS activity,[2]; [8],9.49 ± 0.65^ab mmol/min/mg protein
same,PAP activity,[3]; [7],21.62 ± 1.54^a mmol/min/mg protein
same,PAP activity,[3]; [8],26.14 ± 1.03^ab mmol/min/mg protein
same,"Expression of mRNA, CPT",CPT mRNA; [7],1.65 ± 0.15^c
same,"Expression of mRNA, CPT",CPT mRNA; [8],1.51 ± 0.06^bc
same,"Expression of mRNA, β-Oxidation",β-oxidase mRNA; [7],1.41 ± 0.50^b
same,"Expression of mRNA, β-Oxidation",β-oxidase mRNA; [8],1.26 ± 0.24^b
same,"Expression of mRNA, FAS",FAS mRNA; [7],0.51 ± 0.03^abc
same,"Expression of mRNA, FAS",FAS mRNA; [8],0.28 ± 0.05^a
same,"Expression of mRNA, ME",ME mRNA [4]; [7],0.70 ± 0.07^ab
same,"Expression of mRNA, ME",ME mRNA [4]; [8],0.52 ± 0.06^a
same,"Expression of mRNA, LPL",[5]; [9],2.11 ± 0.09^b
same,"Expression of mRNA, LPL",[5]; [10],1.20 ± 0.14^a
same,"Expression of mRNA, ME",ME mRNA [6]; [9],0.84 ± 0.08^bc
same,"Expression of mRNA, ME",ME mRNA [6]; [10],0.53 ± 0.03^a
